Earlier results in paper PMC11990879, “Anticandidal Activity of Lipopeptides Containing an LL-37-Derived Peptide Fragment KR12” (Molecules, 2025).
Marks after values point to notes of the source that are not given here. Where a SMILES comes first, the peptide text is derived from it. The star is where a group is joined. Butanoyl(4-Ph) = O=C(CCCc1ccccc1)*; Hydrocinnamoyl = O=C(CCc1ccccc1)*; Octanoyl = CCCCCCCC(=O)*; X3 = O=C(/C=C/c1ccccc1)*; Hexanoyl = CCCCCC(=O)*; X2 = O=C(C#Cc1ccccc1)*; X4 = CCCCC(CC)C(=O)*; Butyryl = CCCC(=O)*

system: human red blood cells; settings: cited from earlier work
Description: Table 2 Minimum inhibitory concentrations (MIC) and minimum fungicidal concentrations (MFC) determined for peptides and reference antifungals [g/L]. The highest antimicrobial activity is marked in green, medium values in yellow, while the weakest antifungal activity is marked in red. Minimum hemolytic concentration (MHC5%—causing hemolysis of 5% of human red blood cells) determined in previous stu | column: MHC5%

Molecule | MHC5% (minimum hemolytic concentration causing hemolysis of 5% of human red blood cells)
CC[C@H](C)[C@H](NC(=O)[C@H](CCCNC(=N)N)NC(=O)[C@H](CCC(N)=O)NC(=O)[C@@H](NC(=O)[C@@H](NC(=O)[C@H](CCCNC(=N)N)NC(=O)[C@H](CCCCN)NC(=O)/C=C/c1ccccc1)[C@@H](C)CC)C(C)C)C(=O)N[C@@H](CCCCN)C(=O)N[C@@H](CC(=O)O)C(=O)N[C@@H](Cc1ccccc1)C(=O)N[C@@H](CC(C)C)C(=O)N[C@@H](CCCNC(=N)N)C(N)=O [IX, trans-cinnamic acid-KR12-NH2] (X3-KRIVQRIKDFLR-NH2) | 128 g/L
CCCCCCCC(=O)NCCCC[C@H](N)C(=O)N[C@@H](CCCNC(=N)N)C(=O)N[C@H](C(=O)N[C@H](C(=O)N[C@@H](CCC(N)=O)C(=O)N[C@@H](CCCNC(=N)N)C(=O)N[C@H](C(=O)N[C@@H](CCCCN)C(=O)N[C@@H](CC(=O)O)C(=O)N[C@@H](Cc1ccccc1)C(=O)N[C@@H](CC(C)C)C(=O)N[C@@H](CCCNC(=N)N)C(N)=O)[C@@H](C)CC)C(C)C)[C@@H](C)CC [XI, C8^ε-KR12-NH2] (H-K(Octanoyl)RIVQRIKDFLR-NH2) | >256 * g/L
CCCCCCCC(=O)N[C@@H](CCCCN)C(=O)N[C@@H](CCCCN)C(=O)N[C@@H](CCCNC(=N)N)C(=O)N[C@H](C(=O)N[C@H](C(=O)N[C@@H](CCC(N)=O)C(=O)N[C@@H](CCCNC(=N)N)C(=O)N[C@H](C(=O)N[C@@H](CCCCN)C(=O)N[C@@H](CC(=O)O)C(=O)N[C@@H](Cc1ccccc1)C(=O)N[C@@H](CC(C)C)C(=O)N[C@@H](CCCNC(=N)N)C(N)=O)[C@@H](C)CC)C(C)C)[C@@H](C)CC [XII, C8^α-Lys-KR12-NH2] (Octanoyl-KKRIVQRIKDFLR-NH2) | 256 g/L
CCCCC(CC)C(=O)N[C@@H](CCCCN)C(=O)N[C@@H](CCCNC(=N)N)C(=O)N[C@H](C(=O)N[C@H](C(=O)N[C@@H](CCC(N)=O)C(=O)N[C@@H](CCCNC(=N)N)C(=O)N[C@H](C(=O)N[C@@H](CCCCN)C(=O)N[C@@H](CC(=O)O)C(=O)N[C@@H](Cc1ccccc1)C(=O)N[C@@H](CC(C)C)C(=O)N[C@@H](CCCNC(=N)N)C(N)=O)[C@@H](C)CC)C(C)C)[C@@H](C)CC (stereo partly drawn) [XX, 2-Ethylhexanoic acid-KR12-NH2] (X4-KRIVQRIKDFLR-NH2) | 256 g/L
CC[C@H](C)[C@H](NC(=O)[C@H](CCCNC(=N)N)NC(=O)[C@H](CCC(N)=O)NC(=O)[C@@H](NC(=O)[C@@H](NC(=O)[C@H](CCCNC(=N)N)NC(=O)[C@H](CCCCN)NC(=O)CCCc1ccccc1)[C@@H](C)CC)C(C)C)C(=O)N[C@@H](CCCCN)C(=O)N[C@@H](CC(=O)O)C(=O)N[C@@H](Cc1ccccc1)C(=O)N[C@@H](CC(C)C)C(=O)N[C@@H](CCCNC(=N)N)C(N)=O [XXIII, 4-Phenylbutanoic acid-KR12-NH2] ({Butanoyl(4-Ph)}-KRIVQRIKDFLR-NH2) | 128 g/L
CC[C@H](C)[C@H](NC(=O)[C@H](CCCNC(=N)N)NC(=O)[C@H](CCC(N)=O)NC(=O)[C@@H](NC(=O)[C@@H](NC(=O)[C@H](CCCNC(=N)N)NC(=O)[C@H](CCCCN)NC(=O)C#Cc1ccccc1)[C@@H](C)CC)C(C)C)C(=O)N[C@@H](CCCCN)C(=O)N[C@@H](CC(=O)O)C(=O)N[C@@H](Cc1ccccc1)C(=O)N[C@@H](CC(C)C)C(=O)N[C@@H](CCCNC(=N)N)C(N)=O [XXIV, Phenylpropiolic acid-KR12-NH2] (X2-KRIVQRIKDFLR-NH2) | 256 g/L

same assay, conditions: human red blood cells; determined in previous studies; ref [13],[14]; cited from earlier work

Molecule | MHC5% (minimum hemolytic concentration causing hemolysis of 5% of human red blood cells)
CCCC(=O)N[C@@H](CCCCN)C(=O)N[C@@H](CCCNC(=N)N)C(=O)N[C@H](C(=O)N[C@H](C(=O)N[C@@H](CCC(N)=O)C(=O)N[C@@H](CCCNC(=N)N)C(=O)N[C@H](C(=O)N[C@@H](CCCCN)C(=O)N[C@@H](CC(=O)O)C(=O)N[C@@H](Cc1ccccc1)C(=O)N[C@@H](CC(C)C)C(=O)N[C@@H](CCCNC(=N)N)C(N)=O)[C@@H](C)CC)C(C)C)[C@@H](C)CC [II, C4-KR12-NH2] (Butyryl-KRIVQRIKDFLR-NH2) | >256 * g/L
CCCCCC(=O)N[C@@H](CCCCN)C(=O)N[C@@H](CCCNC(=N)N)C(=O)N[C@H](C(=O)N[C@H](C(=O)N[C@@H](CCC(N)=O)C(=O)N[C@@H](CCCNC(=N)N)C(=O)N[C@H](C(=O)N[C@@H](CCCCN)C(=O)N[C@@H](CC(=O)O)C(=O)N[C@@H](Cc1ccccc1)C(=O)N[C@@H](CC(C)C)C(=O)N[C@@H](CCCNC(=N)N)C(N)=O)[C@@H](C)CC)C(C)C)[C@@H](C)CC [III, C6-KR12-NH2] (Hexanoyl-KRIVQRIKDFLR-NH2) | 256 g/L
CCCCCCCC(=O)NCCCC[C@H](N)C(=O)N[C@@H](CCCCN)C(=O)N[C@@H](CCCNC(=N)N)C(=O)N[C@H](C(=O)N[C@H](C(=O)N[C@@H](CCC(N)=O)C(=O)N[C@@H](CCCNC(=N)N)C(=O)N[C@H](C(=O)N[C@@H](CCCCN)C(=O)N[C@@H](CC(=O)O)C(=O)N[C@@H](Cc1ccccc1)C(=O)N[C@@H](CC(C)C)C(=O)N[C@@H](CCCNC(=N)N)C(N)=O)[C@@H](C)CC)C(C)C)[C@@H](C)CC [XIII, C8^ε-Lys-KR12-NH2] (H-K(Octanoyl)KRIVQRIKDFLR-NH2) | 256 g/L
CCCCCCCC(=O)NCCCC[C@H](NC(=O)[C@H](CCCNC(=N)N)NC(=O)[C@H](CC(C)C)NC(=O)[C@H](Cc1ccccc1)NC(=O)[C@H](CC(=O)O)NC(=O)[C@H](CCCCN)NC(=O)[C@@H](NC(=O)[C@H](CCCNC(=N)N)NC(=O)[C@H](CCC(N)=O)NC(=O)[C@@H](NC(=O)[C@@H](NC(=O)[C@H](CCCNC(=N)N)NC(=O)[C@@H](N)CCCCN)[C@@H](C)CC)C(C)C)[C@@H](C)CC)C(N)=O [XIV, KR12-Lys^ε(C8)-NH2] (H-KRIVQRIKDFLRK(Octanoyl)-NH2) | >256 * g/L
CCCCCCCC(=O)NCCCC[C@H](NC(=O)[C@H](CC(C)C)NC(=O)[C@H](Cc1ccccc1)NC(=O)[C@H](CC(=O)O)NC(=O)[C@H](CCCCN)NC(=O)[C@@H](NC(=O)[C@H](CCCNC(=N)N)NC(=O)[C@H](CCC(N)=O)NC(=O)[C@@H](NC(=O)[C@@H](NC(=O)[C@H](CCCNC(=N)N)NC(=O)[C@@H](N)CCCCN)[C@@H](C)CC)C(C)C)[C@@H](C)CC)C(N)=O [XV, [Lys^ε(C8)]^12KR12-NH2] (H-KRIVQRIKDFLK(Octanoyl)-NH2) | >256 * g/L
CCCCCCCC(=O)NCCCC[C@H](NC(=O)[C@H](CCCNC(=N)N)NC(=O)[C@@H](NC(=O)[C@@H](NC(=O)[C@H](CCC(N)=O)NC(=O)[C@H](CCCNC(=N)N)NC(=O)[C@@H](NC(=O)[C@H](CCCCN)NC(=O)[C@H](CC(=O)O)NC(=O)[C@H](Cc1ccccc1)NC(=O)[C@H](CC(C)C)NC(=O)[C@@H](N)CCCNC(=N)N)[C@@H](C)CC)C(C)C)[C@@H](C)CC)C(N)=O [XVII, Retro-KR12-C8^ε-NH2] (H-RLFDKIRQVIRK(Octanoyl)-NH2) | 256 g/L
CCCCCCCC(=O)N[C@@H](CCCNC(=N)N)C(=O)N[C@@H](CC(C)C)C(=O)N[C@@H](Cc1ccccc1)C(=O)N[C@@H](CC(=O)O)C(=O)N[C@@H](CCCCN)C(=O)N[C@H](C(=O)N[C@@H](CCCNC(=N)N)C(=O)N[C@@H](CCC(N)=O)C(=O)N[C@H](C(=O)N[C@H](C(=O)N[C@@H](CCCNC(=N)N)C(=O)N[C@@H](CCCCN)C(N)=O)[C@@H](C)CC)C(C)C)[C@@H](C)CC [XVIII, C8^α-retro-KR12-NH2] (Octanoyl-RLFDKIRQVIRK-NH2) | >256 * g/L
CC[C@H](C)[C@H](NC(=O)[C@H](CCCNC(=N)N)NC(=O)[C@H](CCC(N)=O)NC(=O)[C@@H](NC(=O)[C@@H](NC(=O)[C@H](CCCNC(=N)N)NC(=O)[C@H](CCCCN)NC(=O)CCc1ccccc1)[C@@H](C)CC)C(C)C)C(=O)N[C@@H](CCCCN)C(=O)N[C@@H](CC(=O)O)C(=O)N[C@@H](Cc1ccccc1)C(=O)N[C@@H](CC(C)C)C(=O)N[C@@H](CCCNC(=N)N)C(N)=O [XXII, 3-Phenylpropionic acid-KR12-NH2] (Hydrocinnamoyl-KRIVQRIKDFLR-NH2) | 256 g/L
Ac-KRIVQRIKDFLR-NH2 [I, Ac-KR12-NH2] | >256 * g/L
